The values below come from ChEMBL document CHEMBL1201862, “PubChem BioAssay data set” (2004).

SMILES strings stand for the structures.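 These data come from cells grown in 96-well plates and exposed to compound for 48 hours at five concentrations. GI50 is the concentration that inhibits growth by half.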 The source made the active and inactive calls. Rule as the data show it: active = GI50 up to about 1.1 µM and inactive = higher.

Among the test systems are A498; KM12; SK-MEL-2; COLO 205; HCT-116; SW-620; SF-539; SF-268; IGROV-1; PC-3; HOP-92; DU-145; MOLT-4; NCI-H522; OVCAR-8; OVCAR-4; 786-0; SK-MEL-5; UO-31; RXF 393.
Assay in all cases: growth of human tumour cells (NCI), 48 h

`NCC1OC(n2cnc3c(N)ncnc32)CC1O` (stereo not given): the GI50 in the experiment on A498, in the experiment with KM12, in the experiment with SK-MEL-2, with COLO 205, with HCT-116 and in the experiment with SW-620 was > 100 µM (inactive) throughout. Further, the GI50 in the experiment with SF-539, in the experiment with SF-268, in the experiment with IGROV-1, in the experiment with PC-3, in the experiment on HOP-92 and with DU-145 was > 100 µM (inactive) in each case. In addition, the GI50 with MOLT-4, in the experiment on NCI-H522, in the experiment on OVCAR-8, in the experiment on OVCAR-4, with 786-0 and with SK-MEL-5 was > 100 µM (inactive) in each case. Also, the GI50 in the experiment with UO-31 and in the experiment with RXF 393 was > 100 µM (inactive) throughout.

On to `CC1(C)C(=O)/C=C\C(=O)C(C)(C)C(=O)/C=C\C(=O)C(C)(C)C(=O)/C=C\C(=O)C(C)(C)C(=O)/C=C\C1=O`, for which the GI50 was > 68.5 µM (inactive) in the experiment on A498; 40 µM (inactive) in the experiment with KM12; 25.2 µM (inactive) in the experiment with SK-MEL-2; 15.5 µM (inactive) in the experiment with COLO 205; 15.7 µM (inactive) with HCT-116; 11.1 µM (inactive) in the experiment on SW-620. Besides, the GI50 is 28 µM (inactive) with SF-539; > 45.9 µM (inactive) in the experiment with SF-268; 34.4 µM (inactive) with IGROV-1; > 100 µM (inactive) with PC-3; 12.7 µM (inactive) with HOP-92; > 100 µM (inactive) in the experiment on DU-145. Moreover, the GI50 with MOLT-4 is 3.53 µM (inactive); with NCI-H522, 8.41 µM (inactive); in the experiment with OVCAR-8, 19.7 µM (inactive); in the experiment on OVCAR-4, 30.3 µM (inactive); in the experiment with 786-0, 24.1 µM (inactive); in the experiment on SK-MEL-5, 22.6 µM (inactive). Besides, the results for the GI50 with UO-31 and in the experiment with RXF 393 were 34.8 µM (inactive) and 17.9 µM (inactive), respectively.

For the compound `NC(=O)NC(=O)c1ccc(NC(=O)CBr)cc1`, the GI50 in the experiment on A498 is 14.3 µM (inactive); with KM12, 4 µM (inactive); with SK-MEL-2 it was 1.99 µM (inactive); in the experiment on COLO 205, 1.48 µM (inactive); in the experiment on HCT-116, 0.83 µM (active); in the experiment with SW-620, 0.344 µM (active). In addition, the GI50 in the experiment with SF-539 is 2.18 µM (inactive); with SF-268 it was 1.4 µM (inactive); in the experiment on IGROV-1 it was 2.03 µM (inactive); in the experiment on PC-3, 1.96 µM (inactive); in the experiment with HOP-92 it was 1.6 µM (inactive); in the experiment with DU-145, 2.44 µM (inactive). Besides, the GI50 with MOLT-4 was 0.241 µM (active); in the experiment on NCI-H522, 0.128 µM (active); in the experiment on OVCAR-8 it was 2.26 µM (inactive); in the experiment with OVCAR-4, 1.66 µM (inactive); with 786-0 it was 0.278 µM (active); with SK-MEL-5, 1.62 µM (inactive). Moreover, the GI50 in the experiment with UO-31 was 1.42 µM (inactive); in the experiment on RXF 393 it was 1.77 µM (inactive).
